Patent US10988477B2 (Merck Patent GmbH, priority 2018, dated 2021)
pIC50, pKi: −log10 of the molar value. Like-named read-outs stand apart in the source and are kept apart here.

How the values were obtained:
[1] = biological target: intracellular GCN2 (phosphorylation of the GCN2 substrate eIF2α) (Homo sapiens, UniProt Q9P2K8); assay: GCN2 cellular inhibition assay (AlphaScreen SureFire P-eIF2α Ser51, borrelidin-treated U2OS cells); type: cell-based
How it was run: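 Borrelidin at 10 μM is added to U2OS cells immediately after compound (4-fold dilution series, 40 μM top final) for 1 h at 37 °C. Phosphorylated eIF2α Ser51 in lysates is quantified by AlphaScreen and expressed as percent inhibition against borrelidin-stimulated controls.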

[2] = biological target: GCN2 kinase (Homo sapiens, UniProt Q9P2K8); assay: GCN2 enzyme inhibition assay (Transcreener ADP2 fluorescence polarization); type: biochemical; details: 280 μM ATP
GCN2 kinase, sequence (Q9P2K8 whole entry): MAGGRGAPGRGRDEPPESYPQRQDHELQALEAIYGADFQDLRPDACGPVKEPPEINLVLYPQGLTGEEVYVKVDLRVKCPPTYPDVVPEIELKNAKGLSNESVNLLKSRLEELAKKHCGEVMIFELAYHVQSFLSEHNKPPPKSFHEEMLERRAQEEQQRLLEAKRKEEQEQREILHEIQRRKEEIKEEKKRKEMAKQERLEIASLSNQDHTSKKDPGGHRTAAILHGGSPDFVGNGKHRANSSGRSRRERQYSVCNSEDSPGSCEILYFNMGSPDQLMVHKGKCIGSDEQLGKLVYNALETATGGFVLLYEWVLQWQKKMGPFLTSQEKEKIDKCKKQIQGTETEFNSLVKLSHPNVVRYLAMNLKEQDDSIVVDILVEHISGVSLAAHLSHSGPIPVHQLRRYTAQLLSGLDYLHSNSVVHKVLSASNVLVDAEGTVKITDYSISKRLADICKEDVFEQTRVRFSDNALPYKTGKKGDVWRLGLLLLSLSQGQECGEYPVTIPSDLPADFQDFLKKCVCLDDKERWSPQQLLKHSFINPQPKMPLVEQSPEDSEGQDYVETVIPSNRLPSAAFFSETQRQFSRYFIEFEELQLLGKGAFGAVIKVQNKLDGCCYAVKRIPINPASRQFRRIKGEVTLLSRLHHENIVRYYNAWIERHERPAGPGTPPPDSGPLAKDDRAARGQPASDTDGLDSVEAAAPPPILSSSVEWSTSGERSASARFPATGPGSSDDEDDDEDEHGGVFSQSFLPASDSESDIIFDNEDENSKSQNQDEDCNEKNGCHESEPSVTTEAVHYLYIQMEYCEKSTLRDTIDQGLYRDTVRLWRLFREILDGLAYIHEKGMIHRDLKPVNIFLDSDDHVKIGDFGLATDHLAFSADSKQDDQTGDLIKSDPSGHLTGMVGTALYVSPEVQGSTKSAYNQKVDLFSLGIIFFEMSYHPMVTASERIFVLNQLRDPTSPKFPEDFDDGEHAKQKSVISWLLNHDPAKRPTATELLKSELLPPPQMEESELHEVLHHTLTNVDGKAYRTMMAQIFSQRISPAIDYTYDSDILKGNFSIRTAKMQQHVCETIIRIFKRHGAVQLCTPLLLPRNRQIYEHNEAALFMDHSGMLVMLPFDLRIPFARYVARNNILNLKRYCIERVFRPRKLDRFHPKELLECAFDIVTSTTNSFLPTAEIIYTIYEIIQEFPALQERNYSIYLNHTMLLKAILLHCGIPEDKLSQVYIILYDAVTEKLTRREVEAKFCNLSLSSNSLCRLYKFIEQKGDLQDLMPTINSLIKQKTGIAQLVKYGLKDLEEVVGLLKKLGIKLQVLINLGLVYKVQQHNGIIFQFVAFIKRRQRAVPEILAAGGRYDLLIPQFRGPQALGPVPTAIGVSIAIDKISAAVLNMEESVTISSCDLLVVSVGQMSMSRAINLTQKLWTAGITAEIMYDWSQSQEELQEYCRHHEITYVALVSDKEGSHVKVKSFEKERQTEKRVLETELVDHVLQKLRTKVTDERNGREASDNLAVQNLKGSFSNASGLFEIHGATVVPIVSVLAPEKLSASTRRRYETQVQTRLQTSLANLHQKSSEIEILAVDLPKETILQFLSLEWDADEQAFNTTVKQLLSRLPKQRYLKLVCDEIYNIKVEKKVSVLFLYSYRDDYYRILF
How it was run: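 Kinase activity is followed as ADP formation, measured by fluorescence polarization, using 4 nM enzyme with 280 μM ATP and 200 μM (RS)7 peptide at pH 7.5 and 25 °C for 1 h. Values come from a non-linear tight-binding fit.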

[3] = compounds of Formula II, biomarker assay, phosphorylated eIF2α Ser51 in borrelidin-treated U2OS cells
[4] = compounds of Formula II, 4 nM GCN2 kinase
[5] = compounds of Formula IV, biomarker assay, phosphorylated eIF2α Ser51 in borrelidin-treated U2OS cells
[6] = Enzyme activity for compounds of Formula IV, Ki(app), 25° C.

intracellular GCN2 (phosphorylation of the GCN2 substrate eIF2α), sequence (Q9P2K8 whole entry): as above

SMILES	pIC50 [1, 3]	pKi [2, 4]	pIC50 [1, 5]	pKi [2, 6]	further results
CC1C(C(N)=O)NCCN1c1cc(-c2cnc3ccc(C(F)F)nn23)ncn1 (stereo not drawn) [II-477, 4-(6-(6-(Difluoromethyl)imidazo[1,2-b]pyridazin-3-yl)pyrimidin-4-yl)-3-methylpiperazine-2-carboxamide]	5.30 to 6.30	6.00 to 8.00	–	–	–
CS(=O)(=O)N1CC2(CCCN(c3cc(-c4cnc5ccc(C(F)F)nn45)ccn3)C2)C1 [II-136, 6-(Difluoromethyl)-3-(2-(2-(methylsulfonyl)-2,6-diazaspiro[3.5]nonan-6-yl)pyridin-4-yl)imidazo[1,2-b]pyridazine]	> 6.30	> 8.00	–	–	–
CC1C(CNS(C)(=O)=O)C(F)(F)C(C)CN1c1cc(-c2cnc3ccc(C(F)F)nn23)ncn1 (stereo not drawn) [II-475, N-((1-(6-(6-(Difluoromethyl)imidazo[1,2-b]pyridazin-3-yl)pyrimidin-4-yl)-4,4-difluoro-2,5-dimethylpiperidin-3-yl)methyl)methanesulfonamide]	> 6.30	6.00 to 8.00	–	–	–
CS(=O)(=O)NCC1CN(c2cc(-c3cnc4cccnn34)ccn2)CCO1 (stereo not drawn) [II-732, N-((4-(4-(imidazo[1,2-b]pyridazin-3-yl)pyridin-2-yl)morpholin-2-yl)methyl)methanesulfonamide]	< 5.30	< 6.00	–	–	–
C[C@H]1CCCCN1c1cc(-c2cnc3ccc(C(F)F)nn23)ncn1 [II-323, (S)-6-(Difluoromethyl)-3-(6-(2-methylpiperidin-1-yl)pyrimidin-4-yl)imidazo[1,2-b]pyridazine]	5.30 to 6.30	6.00 to 8.00	–	–	–
FC(F)c1ccc2ncc(-c3cc(C4CCCN(C5COC5)C4)ncn3)n2n1 (stereo not drawn) [II-180, 6-(Difluoromethyl)-3-(6-(1-(oxetan-3-yl)piperidin-3-yl)pyrimidin-4-yl)imidazo[1,2-b]pyridazine]	< 5.30	6.00 to 8.00	–	–	–
CC(=O)N1CCN(c2ccnc(-c3cnc4ccc(C(F)F)nn34)c2)CC1 [II-127, 1-(4-(2-(6-(Difluoromethyl)imidazo[1,2-b]pyridazin-3-yl)pyridin-4-yl)piperazin-1-yl)ethanone]	5.30 to 6.30	6.00 to 8.00	–	–	–
OCC1CN(c2cc(-c3cnc4ccc(C(F)(F)F)nn34)ncn2)CCO1 (stereo not drawn) [II-518, (4-(6-(6-(Trifluoromethyl)imidazo[1,2-b]pyridazin-3-yl)pyrimidin-4-yl)morpholin-2-yl)methanol]	< 5.30	6.00 to 8.00	–	–	–
CC1CN(c2cccc(-c3cnc4cnc(C(F)(F)F)cn34)n2)C(C)C(c2cn[nH]c2)N1 (stereo not drawn) [IV-583, 3-(6-(2,5-Dimethyl-3-(1H-pyrazol-4-yl)piperazin-1-yl)pyridin-2-yl)-6-(trifluoromethyl)imidazo[1,2-a]pyrazine]	–	–	5.30 to 6.30	> 8.00	–
CC1C(CNS(C)(=O)=O)NCCN1c1cc(-c2cnc3ccc(C(F)(F)F)nn23)ncn1 (stereo not drawn) [II-466, N-((3-Methyl-4-(6-(6-(trifluoromethyl)imidazo[1,2-b]pyridazin-3-yl)pyrimidin-4-yl)piperazin-2-yl)methyl)methanesulfonamide]	> 6.30	> 8.00	–	–	–
CC(=O)N1CCN(c2cc(-c3cnn4ccc(C(F)F)nc34)ccn2)CC1	–	–	–	–	pIC50 ([1]; compounds of Formula III, U2OS cells, 10 μM borrelidin, 1 h, read-out: GCN2 Biomarker (IC50)): 5.30 to 6.30; pKi ([2]; compounds of Formula III, 4 nM GCN2 kinase): 6.00 to 8.00
FC(F)c1cn2c(-c3nccc(N4CCCCCC4)n3)cnc2cn1 [IV-105, 3-(4-(Azepan-1-yl)pyrimidin-2-yl)-6-(difluoromethyl)imidazo[1,2-a]pyrazine]	–	–	< 5.30	6.00 to 7.00	–
CC(NS(C)(=O)=O)C1CN(c2cc(-c3cnc4ccc(C(F)F)nn34)ncn2)CCN1 (stereo not drawn) [II-465, N-(1-(4-(6-(6-(Difluoromethyl)imidazo[1,2-b]pyridazin-3-yl)pyrimidin-4-yl)piperazin-2-yl)ethyl)methanesulfonamide]	5.30 to 6.30	6.00 to 8.00	–	–	–
CC1CN(c2ccnc(-c3cnc4cnc(C(F)(F)F)cn34)n2)CC(c2cn[nH]c2)O1 (single isomer, unassigned) [IV-16, 2-Methyl-6-(1H-pyrazol-4-yl)-4-(2-(6-(trifluoromethyl)imidazo[1,2-a]pyrazin-3-yl)pyrimidin-4-yl)morpholine]	–	–	5.30 to 6.30	7.00 to 8.00	–
CC1CN(c2ccnc(-c3cnc4cnc(C#N)cn34)n2)CC(c2cn[nH]c2)O1 (stereo not drawn) [IV-194, 3-(4-(2-Methyl-6-(1H-pyrazol-4-yl)morpholino)pyrimidin-2-yl)imidazo[1,2-a]pyrazine-6-carbonitrile]	–	–	> 6.30	> 8.00	–
CC1CN(c2cc(-c3cnc4ccc(C(F)F)nn34)ncn2)C(C)C(CNS(C)(=O)=O)N1 (stereo not drawn) [II-427, N-((4-(6-(6-(Difluoromethyl)imidazo[1,2-b]pyridazin-3-yl)pyrimidin-4-yl)-3,6-dimethylpiperazin-2-yl)methyl)methanesulfonamide]	> 6.30	> 8.00	–	–	–
c1cn2c(-c3nccc(N4CCOC(c5cn[nH]c5)C4)n3)cnc2cn1 (stereo not drawn) [IV-39, 4-(2-(Imidazo[1,2-a]pyrazin-3-yl)pyrimidin-4-yl)-2-(1H-pyrazol-4-yl)morpholine]	–	–	< 5.30	6.00 to 7.00	–
CN(C[C@@H]1CN(c2cc(-c3cnc4ccc(C(F)F)nn34)ncn2)CCO1)S(C)(=O)=O [II-290, (S)—N-((4-(6-(6-(Difluoromethyl)imidazo[1,2-b]pyridazin-3-yl)pyrimidin-4-yl)morpholin-2-yl)methyl)-N-methylmethanesulfonamide]	5.30 to 6.30	6.00 to 8.00	–	–	–
FC(F)c1cn2c(-c3nccc(N4CCc5ccccc5C4)n3)cnc2cn1 [IV-115, 2-(2-(6-(Difluoromethyl)imidazo[1,2-a]pyrazin-3-yl)pyrimidin-4-yl)-1,2,3,4-tetrahydroisoquinoline]	–	–	< 5.30	6.00 to 7.00	–
CC1CN(c2ncc(F)c(-c3cnc4cnc(C(F)(F)F)cn34)n2)CC(c2cn[nH]c2)N1 (stereo not drawn) [IV-422, 3-(5-Fluoro-2-(3-methyl-5-(1H-pyrazol-4-yl)piperazin-1-yl)pyrimidin-4-yl)-6-(trifluoromethyl)imidazo[1,2-a]pyrazine]	–	–	< 5.30	6.00 to 7.00	–
C[C@@H]1[C@H](c2cn[nH]c2)OCCN1c1ccnc(-c2cnc3cnc(C#N)cn23)n1 (racemic) [IV-280, Cis-3-(4-(3-Methyl-2-(1H-pyrazol-4-yl)morpholino)pyrimidin-2-yl)imidazo[1,2-a]pyrazine-6-carbonitrile]	–	–	> 6.30	> 8.00	–
NS(=O)(=O)N1CCCC2(CN(c3cc(-c4cnc5ccc(C(F)F)nn45)ncn3)C2)C1 [II-284, 2-(6-(6-(Difluoromethyl)imidazo[1,2-b]pyridazin-3-yl)pyrimidin-4-yl)-2,6-diazaspiro[3.5]nonane-6-sulfonamide]	< 5.30	6.00 to 8.00	–	–	–
FC(F)(F)c1cn2c(-c3nccc(N4CCOC(c5cn[nH]c5)C4)n3)cnc2cn1 (single isomer, unassigned) [IV-8, 2-(1H-Pyrazol-4-yl)-4-(2-(6-(trifluoromethyl)imidazo[1,2-a]pyrazin-3-yl)pyrimidin-4-yl)morpholine]	–	–	5.30 to 6.30	> 8.00	–
CS(=O)(=O)NCC1CCCN(c2cc(-c3cnc4ccc(C(F)F)nn34)cc(CN)n2)C1 (stereo not drawn) [II-80, N-((1-(6-(Aminomethyl)-4-(6-(difluoromethyl)imidazo[1,2-b]pyridazin-3-yl)pyridin-2-yl)piperidin-3-yl)methyl)methanesulfonamide]	5.30 to 6.30	> 8.00	–	–	–
CC1CN(c2ccnc(-c3cnc4cnc(C(F)(F)F)cn34)n2)C(C)C(c2cn[nH]c2)N1 (single isomer, unassigned) [IV-345, 3-(4-(2,5-Dimethyl-3-(1H-pyrazol-4-yl)piperazin-1-yl)pyrimidin-2-yl)-6-(trifluoromethyl)imidazo[1,2-a]pyrazine]	–	–	5.30 to 6.30	7.00 to 8.00	–
CC1CN(c2cc(-c3cnc4ccc(C(F)F)nn34)ncn2)C(C)C(CNS(C)(=O)=O)=C1F (stereo not drawn) [II-491, N-((1-(6-(6-(Difluoromethyl)imidazo[1,2-b]pyridazin-3-yl)pyrimidin-4-yl)-4-fluoro-2,5-dimethyl-1,2,5,6-tetrahydropyridin-3-yl)methyl)methanesulfonamide]	> 6.30	> 8.00	–	–	–
CC1CN(c2ccnc(-c3cnc4cnc(C(F)(F)F)cn34)n2)CC(c2cn[nH]c2)N1 (single isomer, unassigned) [IV-460, 3-(4-(3-Methyl-5-(1H-pyrazol-4-yl)piperazin-1-yl)pyrimidin-2-yl)-6-(trifluoromethyl)imidazo[1,2-a]pyrazine]	–	–	5.30 to 6.30	6.00 to 7.00	–
CS(=O)(=O)NC[C@H]1CN(c2cc(-c3cnc4ccc(C(F)F)nn34)ncn2)C[C@H](C(F)(F)F)O1 [II-330, N-(((2R,6R)-4-(6-(6-(Difluoromethyl)imidazo[1,2-b]pyridazin-3-yl)pyrimidin-4-yl)-6-(trifluoromethyl)morpholin-2-yl)methyl)methanesulfonamide]	5.30 to 6.30	6.00 to 8.00	–	–	–
CS(=O)(=O)N1CC2CCCN(c3cc(-c4cnc5ccc(C(F)F)nn45)ncn3)C2C1 (stereo not drawn) [II-320, 6-(Difluoromethyl)-3-(6-(6-(methylsulfonyl)octahydro-1H-pyrrolo[3,4-b]pyridin-1-yl)pyrimidin-4-yl)imidazo[1,2-b]pyridazine]	< 5.30	6.00 to 8.00	–	–	–
Cc1[nH]ncc1[C@@H]1CN(c2cc(-c3cnc4ccc(C(F)(F)F)nn34)ncn2)C[C@@H](C)O1 [II-766, (2R,6R)-2-methyl-6-(5-methyl-1H-pyrazol-4-yl)-4-(6-(6-(trifluoromethyl)imidazo[1,2-b]pyridazin-3-yl)pyrimidin-4-yl)morpholine]	< 5.30	–	–	–	pIC50 [2, 4]: 6.00 to 8.00
